Assays:
Wild type C57BL/6J mice = experiment: Laser-induced choroidal neovascularization (CNV), CNV volume and F4/80 staining; type: in vivo, mouse; conditions: for Neovascularization (CNV volume): FTOi i.p. pretreatment plus 25 ng intravitreous after laser injury, day 7, isolectin B4 staining
Protocol: Laser photocoagulation (532 nm, 180 mW, 100 ms, 75 μm) (OcuLight GL; IRIDEX Corp., Mountain View, CA, USA) was performed bilaterally (volume studies: 4 spots per eye; RNA analyses: 10 spots per eye) in 6- to 8-week-old mice on day 0 to induce CNV as previously described 1-3. For drug treatment, the mice pretreated with FTO inhibitor (FB23-2, SML2694, Sigma) or vehicle (DMSO) through intraperitoneal injection (i.p, 2 mg/kg). Then, the mice were subjected to laser photocoagulation followed by intravitreous injection of the FTO inhibitor (25 ng/0.5 μl per eye) or vehicle. At day 3 after laser injury, the mice were administered the FTO inhibitor (2 mg/kg) or vehicle via intraperitoneal injection. At day 7, the eyes were collected for fluorescein labeled-isolectin B4 and F4/80 staining and for neovascular volume quantification.
RPE flat mounts were prepared as previously described 5. Briefly, at day 3 or 7 after laser injury, mice eyes were enucleated and dissected as retina and sclera-RPE-choroid complexes. The RPE-choroid sheets were immediately fixed in 4% paraformaldehyde (Electron Microscopy Sciences, 50-980-495, USA) in phosphate-buffered saline for 1 hour. […] As described previously^1, CNV volumes were determined by labeling with fluorescein labeled Griffonia Simplicifolia Lectin I (GSL I) isolectin B4 (Vector Laboratories, FL-1201, USA). […] FTO expression was visualized by immunolabeling with anti-FTO antibody (AdipoGen Life Sciences, AG-20A-0083, USA), and the specificity of labeling was assessed using isotype serum immunolabeling. […] Fluorescence images were captured by Nikon AIR laser scanning confocal microscope.
Laser photocoagulation (532 nm, 180 mW, 100 ms, 75 μm) (OcuLight GL; IRIDEX Corp., Mountain View, CA, USA) was performed bilaterally (volume studies: four spots per eye; protein analyses: 20 spots per eye) in 6- to 8-week-old male mice on day 0 to induce CNV in a masked fashion. […] Choroidal neovascularization was visualized using a blue argon laser wavelength (488 nm) and a scanning laser confocal microscope and quantified using Image J software.

Vegfa mRNA = experiment: MeRIP-qPCR of m6A methylated Vegfa mRNA in BMDMs; type: cell-based, mouse; conditions: BMDMs treated with FTOi vs DMSO, MeRIP and qPCR
Protocol: To validate m6A methylation of Vegfa mRNA and perturbations induced by FTOi treatment, we performed MeRIP-qPCR by following the EpiMark® N6-Methyladenosine Enrichment Kit protocol (New England Biolabs, E1610S, USA). Briefly, total RNA was extracted from mouse BMDMs treated with 5 μM of FTO inhibitor or vehicle for 24 hours by using TRIzol™ Reagent (Thermo Fisher Scientific, 15596018, USA). 100 μg of total RNA from each group was mixed with unmodified RNA (Negative control, NC). Next, 20 μg of these mixtures was incubated with m6A antibody (Cell Signaling Technology, D9D9W, USA) and then pulled down using Pierce™ Protein A/G Magnetic Beads (Thermo Fisher Scientific, 88802, USA) overnight. The enriched m6A positive RNAs were then eluted and purified by NucleoSpin RNA Clean-Up (Macherey-Nagel, 740948.25, USA), and the amounts of m6A-modified Vegfa mRNA or negative control RNAs were determined by reverse transcription and qPCR.

[1] = Cell viability under FTO inhibition; type: cell-based
macrophage = experiment: mRNA abundance of other pro-angiogenic factors in macrophages (RT-PCR); type: cell-based, mouse; conditions: FTO inhibition
Protocol: Total RNA was extracted from mouse BMDMs or eye tissues with TRIzol™ Reagent (Thermo Fisher Scientific, 15596018, USA) and quantified by using a NanoDrop 2000 spectrophotometer (Thermo-Fisher Scientific, USA). Reverse transcription was performed using the QuantiTect Reverse Transcription kit (205313, QIAGEN). Target genes were amplified by real-time quantitative polymerase chain reaction (PCR) (Applied Biosystems, 7900 HT Fast Real-Time PCR system) with Power SYBR Green Master Mix. Relative gene expression was determined by the 2^−ΔΔCt method, and 18S rRNA or GAPDH (glyceraldehyde-3-phosphate dehydrogenase) was used as an internal control.

human ARPE-19 cells = experiment: VEGFA release in human ARPE-19 cells; type: cell-based

Cc1noc(C)c1-c1cc(Cl)c(Nc2ccccc2C(=O)NO)c(Cl)c1 [FB23-2]
Neovascularization (CNV volume) (Wild type C57BL/6J mice): inhibits angiogenesis | Neovascularization (CNV volume) (Wild type C57BL/6J mice; listed as selective inhibitor): significant reduction in neovascularization | F4/80 macrophage recruitment (Wild type C57BL/6J mice; laser-induced CNV, FTO inhibitor in vivo, F4/80 staining): not in F4/80 macrophage recruitment | Level of m6A methylated Vegfa mRNA (Vegfa mRNA): increase the level of methylated (m6A) VEGFA mRNA | Level of m6A methylated Vegfa mRNA (Vegfa mRNA; listed as FTO inhibitor): significantly increased the abundance of m6A methylated Vegfa mRNA | Adverse effects on cell viability [1]: minimal adverse effects on cell viability | mRNA abundance of other pro-angiogenic factors (Plgf, Pdgfa) (macrophage): did not significantly alter the mRNA abundance | VEGFA release (human ARPE-19 cells): suppressed the VEGFA release

Reference: US20260174858A1, “TARGETING THE m6A MRNA DEMETHYLASE FTO” (University of Virginia Patent Foundation, priority 2022, published 2026)
